Consider 3 molecules from patent US8551510B2, “Bed bug control and repellency” (Bedoukian Research, Inc., priority 2009, dated 2013).

For this assay, the system named is bed bugs. Kind of assay: Choice test with unconcealed bed bugs on filter paper discs, test compound in acetone vs. acetone only (percent repellency). Type of assay: in vivo. As to conditions: chemical at 0.2%; 2 hour post-treatment (Table 2). As for the experimental part: This test was undertaken employing unconcealed bugs. Two semicircular discs of filter paper, 9 cm in radius treated with 1 ml of solution to wet the entire surface, one treated with an acetone solution of the test compound and one only acetone treated were placed on the lid of a Petri dish. Five replicates of ten (10) bed bugs were release into the center of the lids of the Petri dish with a choice of the test compound treated or only acetone treated substrate. The distribution of bed bugs was recorded at ½, […], 2, 6 and 24 hours post-treatment. Paired t-tests were conducted for each treatment to ascertain whether or not there was a statistically significant difference in the number of bed bugs on the treated vs. untreated discs.
Turning to `CCC(C)CCCC(C)CCC1CCCC1=O` (stereo not drawn) [Tetrahydro methyl apritone, 2-(3,7-dimethynonyl)cyclopentanone], the “percent repellency at 2 hour” value is given as 88%. Then `CC(C)CCCC(C)CCC1CCCC1=O` (stereo not drawn) [Tetrahydroapritone], with 82%; and `CCCCCC1CC(=O)C=C(C)C1C(=O)OCC` (stereo not drawn) [ethyl 2-methyl-4-oxo-6-pentylcyclohec-2-enecarboxylate], with 62%.
